In US20240254119A1 (THIRD HARMONIC BIO, INC., priority 2022, published 2024):

Legend:
Caco-2 cells = test: Caco-2 permeability assay; assay type: in vitro ADME; details: for Caco-2: Papp A-B: Caco-2, apical to basolateral
Method: (§1) Exemplary compounds were tested for cell permeability in Caco-2, MDCKII-MDR1 and MDCKII-BCRP cell lines with efflux transporter engagement inferred from the efflux ratios determined. Procedures and results are described below. […] This feature of certain compounds is in part due to efflux transporter engagement. See, for instance, exemplary such compounds included in data tables below.
The transport buffer in the study was HBSS with 10.0 mM HEPES at pH 7.40±0.05. Test compound was tested at 2.00 μM bi-directionally in duplicate. Digoxin was tested at 10.0 μM bi-directionally in duplicate, while nadolol and metoprolol were tested at 2.00 μM in A to B direction in duplicate. Final DMSO concentration was adjusted to less than 1%. The plate was incubated for 2 hours in CO2 incubator at 37±1° C., with 5% CO2 at saturated humidity without shaking. And all samples after mixed with acetonitrile containing internal standard were centrifuged at 3200×g for 10 min. For nadolol and metoprolol, 200 μL supernatant solution was diluted with 600 μL ultra-pure water for LC-MS/MS analysis. For digoxin and test compounds, 200 μL supernatant solution was diluted with 200 μL ultra-pure water for LC-MS/MS analysis. Concentrations of test and control compounds in starting solution, donor solution, and receiver solution were quantified by LC-MS/MS methodologies, using peak area ratio of analyte/internal standard.
After transport assay, lucifer yellow rejection assay was applied to determine the Caco-2 cell monolayer integrity.
[…] And permeation of lucifer yellow through the monolayer was measured to evaluate the cellular integrity.
(§2) The apparent permeability coefficient Papp (cm/s) was calculated using the equation: Papp=(dCr/dt)×Vr/(A×C0), where dCr/dt is the cumulative concentration of compound in the receiver chamber as a function of time (μM/s); Vr is the solution volume in the receiver chamber (0.075 mL on the apical side, 0.25 mL on the basolateral side); A is the surface area for the transport, i.e. 0.0804 cm^2 for the area of the monolayer; C0 is the initial concentration in the donor chamber (μM).
The efflux ratio was calculated using the equation: Efflux Ratio=Papp (BA)/Papp(AB).
Percent recovery was calculated using the equation: % Solution Recovery=100×[(Vr×Cr)+(Vd×Cd)]/(Vd×C0), where Vd is the volume in the donor chambers (0.075 mL on the apical side, 0.25 mL on the basolateral side); Cd and Cr are the final concentrations of transport compound in donor and receiver chambers, respectively.

MDR1 (MDR1-MDCKII cells) = biological target: T1, MDR1 (MDR1-MDCKII cells) (Homo sapiens, UniProt P08183); test: Permeability in MDR1-MDCKII cells; assay type: in vitro ADME; details: for MDCKII-MDR1: Papp A-B: MDCKII-MDR1, apical to basolateral
T1 construct: host or cells: MDCKII (canine kidney) cells
Method: as §1
MDR1-MDCKII cells (obtained from Piet Borst at the Netherlands Cancer Institute) were seeded onto […] membranes (PET) in 96-well insert systems at 2.5×10^5 cells/mL until to 4-7 days for confluent cell monolayer formation.
Test compounds were diluted with the transport buffer (HBSS with 10 mM Hepes, pH7.4) from DMSO stock solution to a concentration of 2.00 μM (DMSO<1%) and applied to the apical or basolateral side of the cell monolayer. Permeation of the test compounds from A to B direction or B to A direction was determined in duplicate. Digoxin was tested at 10.0 μM from A to B direction or B to A direction as well, while nadolol and metoprolol were tested at […] in A to B direction in duplicate. The plate was incubated for 2.5 hours in CO2 incubator at 37±1° C., with 5% CO2 at saturated humidity without shaking. In addition, the efflux ratio of each compound was also determined. Test and reference compounds were quantified by LC-MS/MS analysis based on the peak area ratio of analyte/IS.
After transport assay, Lucifer yellow rejection assay are applied to determine the cell monolayer integrity. Buffers are removed from both apical and basolateral chambers, followed by the addition of 75 μL of 100 μM lucifer yellow in transport buffer and 250 μL transport buffer in apical and basolateral chambers, respectively. The plate is incubated for 30 minutes at 37° C. with 5% CO2 and saturated humidity without shaking. After 30 minutes incubation, 20 μL of lucifer yellow samples are taken from the apical sides, followed by the addition of 60 μL of Transport Buffer. And then 80 μL of lucifer yellow samples are taken from the basolateral sides. The relative fluorescence unit (RFU) of lucifer yellow is measured at 425/528 nm (excitation/emission) with an Envision plate reader.
The apparent permeability coefficient Papp (cm/s) was calculated using the equation: […]
as §2, with “Where” for “The apparent permeability coefficient Papp (cm/s) was calculated using the equation: Papp=(dCr/dt)×Vr/(A×C0), where”, “(μM). The efflux ratio was calculated using the equation: […]” for “(μM).”
Where Vd is the volume in the donor chambers (0.075 mL on the apical side, 0.25 mL on the basolateral side); Cd and Cr are the final concentrations of transport compound in donor and receiver chambers, respectively.

wtKIT = biological target: T2, wtKIT (Homo sapiens, UniProt P10721); test: HTRF biochemical assay, wtKIT (phosphorylation of a peptide substrate); details: Table 4
T2 construct: 1888289AM in the reaction mixtures
Procedure, shortened: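 HTRF read-out of FAM-peptide (1 µM) phosphorylation after anti-phosphotyrosine antibody addition and EDTA quench. Reaction: 5.0 nM wtKIT, 400 µM ATP, 10 mM Mn2+, HEPES pH 7.5, 1% DMSO, 3 h, 25 °C; optional enzyme-compound preincubation; enzyme level set for 10-20% conversion.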

T1 sequence (P08183 whole entry): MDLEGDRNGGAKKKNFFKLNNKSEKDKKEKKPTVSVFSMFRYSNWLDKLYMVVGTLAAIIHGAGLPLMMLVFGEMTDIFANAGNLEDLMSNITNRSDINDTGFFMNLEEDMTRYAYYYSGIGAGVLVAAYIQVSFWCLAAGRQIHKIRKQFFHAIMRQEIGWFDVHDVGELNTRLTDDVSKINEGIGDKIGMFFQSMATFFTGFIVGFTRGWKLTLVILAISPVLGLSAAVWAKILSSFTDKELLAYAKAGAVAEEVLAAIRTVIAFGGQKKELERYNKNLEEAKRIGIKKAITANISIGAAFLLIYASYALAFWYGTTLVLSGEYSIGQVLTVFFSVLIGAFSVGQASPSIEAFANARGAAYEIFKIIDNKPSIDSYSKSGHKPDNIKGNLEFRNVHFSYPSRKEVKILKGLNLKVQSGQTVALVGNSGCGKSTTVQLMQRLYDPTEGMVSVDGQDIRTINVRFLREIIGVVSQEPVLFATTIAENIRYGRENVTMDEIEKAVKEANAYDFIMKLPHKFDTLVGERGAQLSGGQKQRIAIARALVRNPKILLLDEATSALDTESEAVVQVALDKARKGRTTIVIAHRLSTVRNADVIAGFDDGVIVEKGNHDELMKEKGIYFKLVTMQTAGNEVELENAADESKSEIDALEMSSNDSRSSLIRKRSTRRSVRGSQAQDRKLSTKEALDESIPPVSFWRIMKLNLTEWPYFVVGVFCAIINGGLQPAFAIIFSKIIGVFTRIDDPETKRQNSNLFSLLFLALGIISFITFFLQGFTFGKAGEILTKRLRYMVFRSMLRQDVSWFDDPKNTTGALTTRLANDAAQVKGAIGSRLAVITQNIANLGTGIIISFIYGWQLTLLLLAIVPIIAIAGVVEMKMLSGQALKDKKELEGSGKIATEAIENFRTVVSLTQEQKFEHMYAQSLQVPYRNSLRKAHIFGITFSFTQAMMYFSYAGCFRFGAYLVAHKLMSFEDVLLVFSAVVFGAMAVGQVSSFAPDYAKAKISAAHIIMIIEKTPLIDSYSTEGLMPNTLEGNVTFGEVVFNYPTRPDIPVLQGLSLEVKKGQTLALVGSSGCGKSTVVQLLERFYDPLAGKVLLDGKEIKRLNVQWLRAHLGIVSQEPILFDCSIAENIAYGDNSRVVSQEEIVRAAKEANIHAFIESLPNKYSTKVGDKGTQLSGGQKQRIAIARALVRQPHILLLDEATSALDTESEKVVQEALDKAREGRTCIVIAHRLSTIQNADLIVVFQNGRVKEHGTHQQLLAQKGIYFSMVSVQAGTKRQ
T2 sequence (P10721 26-976): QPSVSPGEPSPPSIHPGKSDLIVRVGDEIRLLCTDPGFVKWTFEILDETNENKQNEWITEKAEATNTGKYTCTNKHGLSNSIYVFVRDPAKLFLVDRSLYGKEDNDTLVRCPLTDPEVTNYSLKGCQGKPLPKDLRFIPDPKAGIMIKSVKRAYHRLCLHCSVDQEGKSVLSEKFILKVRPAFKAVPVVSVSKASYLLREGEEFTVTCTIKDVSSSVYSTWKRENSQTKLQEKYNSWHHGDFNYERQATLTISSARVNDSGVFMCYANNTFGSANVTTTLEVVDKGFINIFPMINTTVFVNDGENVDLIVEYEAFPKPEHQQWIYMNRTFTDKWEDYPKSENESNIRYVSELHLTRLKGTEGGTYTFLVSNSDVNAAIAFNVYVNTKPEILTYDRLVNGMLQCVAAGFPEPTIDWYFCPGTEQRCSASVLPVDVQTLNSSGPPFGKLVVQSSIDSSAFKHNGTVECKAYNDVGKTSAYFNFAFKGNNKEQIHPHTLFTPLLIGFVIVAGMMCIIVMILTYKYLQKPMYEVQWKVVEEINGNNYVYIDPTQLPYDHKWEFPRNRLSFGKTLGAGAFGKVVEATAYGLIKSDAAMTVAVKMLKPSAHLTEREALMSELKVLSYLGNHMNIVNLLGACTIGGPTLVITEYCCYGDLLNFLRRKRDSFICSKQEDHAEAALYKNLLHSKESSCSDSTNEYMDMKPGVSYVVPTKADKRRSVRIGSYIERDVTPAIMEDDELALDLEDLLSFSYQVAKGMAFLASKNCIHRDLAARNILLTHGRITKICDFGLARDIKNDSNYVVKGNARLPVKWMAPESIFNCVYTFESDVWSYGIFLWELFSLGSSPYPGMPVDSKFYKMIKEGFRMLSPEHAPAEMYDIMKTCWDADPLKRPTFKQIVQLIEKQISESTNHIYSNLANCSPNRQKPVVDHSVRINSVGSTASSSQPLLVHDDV

MDCKII-MDR1: Efflux Ratio (MDR1 (MDR1-MDCKII cells)) | MDCKII-MDR1: Papp A-B (MDR1 (MDR1-MDCKII cells)) | SMILES | Caco-2: Efflux Ratio (Caco-2 cells) | Caco-2: Papp A-B (Caco-2 cells) | IC50 (wtKIT)
38.7 | 0.78 10^−6 cm/s | Cc1ccc(-c2noc([C@H]3CCC(=O)N3)n2)cc1NC(=O)c1cnc2ccccn12 (racemic) [Compound I-327] | 102 | 0.27 10^−6 cm/s | 
0.93 | 20.8 10^−6 cm/s | Cc1ccc(-c2noc(C3(C)CC(F)(F)CN3)n2)cc1NC(=O)c1cnc2ccccn12 (racemic) [Compound I-328] | 1.02 | 18.2 10^−6 cm/s | 
2.01 | 13 10^−6 cm/s | Cc1ccc(-c2noc(CC(C)O)n2)cc1NC(=O)c1cnc2ccccn12 (racemic) [Compound I-363] | 2.55 | 8.85 10^−6 cm/s | 
2.02 | 16 10^−6 cm/s | Cc1ccc(-c2noc(C(C)O)n2)cc1NC(=O)c1cnc2ccccn12 (racemic) [Compound I-364] | 3.09 | 8.39 10^−6 cm/s | 
10.9 | 3.53 10^−6 cm/s | Cc1ccc(-c2noc(C3CCS(=O)(=O)C3)n2)cc1NC(=O)c1cnc2ccccn12 (racemic) [Compound I-389] | 25.4 | 1.25 10^−6 cm/s | 
 |  | COc1ccn2c(C(=O)Nc3cc(-c4noc(CC(O)C(F)F)n4)ccc3C)cnc2c1 (single isomer, unassigned) [Compound I-76] |  |  | ≤ 50 nM
 |  | COC(=O)N1CC(c2nc(-c3ccc(C)c(NC(=O)c4cnc5cc(O[C@@H](C)CO)ccn45)c3)no2)C1 (single isomer, unassigned) [Compound I-217] |  |  | ≤ 50 nM
 |  | Cc1ccc(-c2noc(C(C)NS(C)(=O)=O)n2)cc1NC(=O)c1cnc2ccccn12 (single isomer, unassigned) [Compound I-238] |  |  | 50 to 500 nM
 |  | Cc1ccc(-c2noc([C@H]3C[C@@H]3F)n2)cc1NC(=O)c1cnc2cc(COCC(C)(C)O)ccn12 [Compound I-71, N-[5-[5-[(1R,2S)-2-fluorocyclopropyl]-1,2,4-oxadiazol-3-yl]-2-methyl-phenyl]-7-[(2-hydroxy-2-methyl-propoxy)methyl]imidazo[1,2-a]pyridine-3-carboxamide] |  |  | ≤ 50 nM
 |  | COc1ccn2c(C(=O)Nc3cc(-c4noc(CC5CC(F)(F)C5)n4)ccc3C)cnc2c1 [Compound I-91] |  |  | ≤ 50 nM
 |  | CCOc1ccn2c(C(=O)Nc3cc(-c4noc([C@H]5C[C@@H]5F)n4)ccc3C)cnc2c1 [Compound I-93] |  |  | ≤ 50 nM
 |  | COc1ccn2c(C(=O)Nc3cc(-c4noc(C[C@H](C)O)n4)ccc3C)cnc2c1 [Compound I-94] |  |  | ≤ 50 nM
 |  | COc1ccn2c(C(=O)Nc3cc(-c4noc(C5CC(F)(F)C5)n4)ccc3C)cnc2c1 [Compound I-96] |  |  | ≤ 50 nM
 |  | Cc1ccc(-c2noc([C@H]3C[C@@H]3F)n2)cc1NC(=O)c1cnn2ccccc12 [Compound I-109] |  |  | ≤ 50 nM
 |  | COc1ccc2ncc(C(=O)Nc3cc(-c4noc(C[C@@H](C)O)n4)ccc3C)n2c1 [Compound I-119] |  |  | ≤ 50 nM
 |  | Cc1ccc(-c2noc(CC(O)C(F)F)n2)cc1NC(=O)c1cnc2ccccn12 (stereo not drawn) [Compound I-122] |  |  | ≤ 50 nM
 |  | Cc1nc(-c2ccc(C)c(NC(=O)c3cnc4ccc(N(C)C)cn34)c2)no1 [Compound I-205] |  |  | ≤ 50 nM
 |  | Cc1ccc(-c2cnc(N3CC(F)(F)C3)o2)cc1NC(=O)c1cnc2ccccn12 [Compound I-213] |  |  | 50 to 500 nM
 |  | COCCS(=O)(=O)N1CC(c2nc(-c3ccc(C)c(NC(=O)c4cnc5ccccn45)c3)no2)C1 [Compound I-235] |  |  | 50 to 500 nM
 |  | COC(=O)N1CC(c2nc(-c3ccc(C)c(NC(=O)c4cnc5cc(OC[C@H](C)O)ccn45)c3)no2)C1 [Compound I-262] |  |  | ≤ 50 nM
 |  | COC(=O)N1CC(c2nc(-c3ccc(C)c(NC(=O)c4cnc5cc(OC[C@@H](C)O)ccn45)c3)no2)C1 [Compound I-263] |  |  | ≤ 50 nM
1.73 | 17.2 10^−6 cm/s | Cc1ccc(-c2noc([C@@H](C)O)n2)cc1NC(=O)c1cnc2ccccn12 [Compound I-270] | 3.35 | 8.5 10^−6 cm/s | 
70.3 | 0.47 10^−6 cm/s | CNC(=O)N1CC(c2nc(-c3ccc(C)c(NC(=O)c4cnc5ccccn45)c3)no2)C1 [Compound I-282] | 152 | 0.14 10^−6 cm/s | 
 |  | Cc1ccc(-c2noc(CC(=O)O)n2)cc1NC(=O)c1cnc2ccccn12 [Compound I-335] |  |  | 50 to 500 nM
 |  | Cc1nc(-c2ccc(C)c(NC(=O)c3cnc4ccccn34)c2)no1 [Compound I-360] | 0.36 | 12.7 10^−6 cm/s | ≤ 50 nM

SMILES | MDCKII-MDR1: Efflux Ratio (MDR1 (MDR1-MDCKII cells)) | MDCKII-MDR1: Papp A-B (MDR1 (MDR1-MDCKII cells)) | Caco-2: Efflux Ratio (Caco-2 cells) | Caco-2: Papp A-B (Caco-2 cells) | IC50 (wtKIT)
Cc1ccc(-c2noc(C3CCC(F)C3)n2)cc1NC(=O)c1cnc2ccccn12 (racemic) [Compound I-319] | 0.76 | 10 10^−6 cm/s | 0.83 | 16 10^−6 cm/s | 
Cc1ccc(-c2noc(C3CCC3F)n2)cc1NC(=O)c1cnc2ccccn12 (racemic) [Compound I-376] | 0.54 | 8.41 10^−6 cm/s | 0.85 | 19.5 10^−6 cm/s | 
Cc1ccc(-c2noc(C3COC3)n2)cc1NC(=O)c1cnc2ccccn12 [Compound I-138] | 1.01 | 22 10^−6 cm/s | 1.42 | 16.6 10^−6 cm/s | 
Cc1nc(-c2ccc(Cl)c(NC(=O)c3cnc4ccccn34)c2)no1 [Compound I-172] | 0.46 | 22.7 10^−6 cm/s | 0.49 | 12.9 10^−6 cm/s | 
Cc1ccc(-c2noc([C@H](C)O)n2)cc1NC(=O)c1cnc2ccccn12 [Compound I-271] | 1.36 | 18.5 10^−6 cm/s | 2.93 | 6.26 10^−6 cm/s | 
COC(=O)N1CC(c2nc(-c3ccc(C)c(NC(=O)c4cnn5ccc(Br)cc45)c3)no2)C1 [Compound I-280] | 1.19 | 11.8 10^−6 cm/s | 0.86 | 14 10^−6 cm/s | 
